Assay results published in patent US20210315927A1, “TREATING ARDS USING A POLY-OXYGENATED ALUMINUM HYDROXIDE” (HEMOTEK LLC, priority 2020, published 2021).

Test system: mechanically-induced ARDS in rodents
Parameters: species or system male Sprague Dawley rats
Conditions: rat, in vivo
Text: The following protocol and experimental procedures were approved by the Thomas D Morris, Inc. Institutional Animal Care and Use Committee (Protocol #20-007) and are consistent with the National Institutes of Health guidelines for the humane treatment of laboratory animals. Study subjects were male Sprague Dawley rats (N=21; 250-300 g; 8-10 weeks old; Charles River Laboratories, Inc., Wilmington, Mass. housed in pairs with a 12/12 day night cycle and provided ad libitum access to feed and water.
Animals were inducted with 1-5% isoflurane in air for initial preoperative preparation and cannulations. The anesthetic plane was maintained with a continuous intravenous infusion (0.1 mg/kg/min) into a femoral vein using a pre-filled syringe of alfaxalone acetate (Alfaxan, Schering-Plough Animal Health, Welwyn Garden City, UK) that was connected to a syringe pump (Genie Touch™, Kent Scientific, Torrington, Conn.). A second femoral vein was cannulated to be used for infusion of IV treatments. A femoral artery cannula was connected to a pressure transducer for continuous monitoring of arterial blood pressures (BIOPAC MP-150, BIOPAC Systems, Goleta, Calif.). The same femoral artery cannula was also used to collect blood samples for analysis of blood gases and chemistry (ABL90 Flex, Radiometer, Denmark). […]

poly-oxygenated aluminum hydroxide [Ox66™]
supraphysiologic levels of PAO2 or sO2: did not show supraphysiologic levels of PAO2 or sO2
